Test results published in ChEMBL document CHEMBL1125402, “Conformational effects on the activity of drugs. 13. A revision of previously proposed models for the activation of alpha- and beta-adrenergic receptors” (J Med Chem, 1992).

What was measured:
[1] = target: T1, Adrenergic receptor alpha-1 (Rattus norvegicus) (UniProt P15823+P23944+P43140); experiment: Compound was evaluated for alpha adrenoceptor agonistic activity towards alpha 1 receptor of isolated rat vas deferens; format: functional, tissue-based
[2] = target: T2, Adrenergic receptor alpha-1 (Rattus norvegicus, UniProt P15823+P23944+P43140); experiment: Binding affinity towards Alpha-1 adrenergic receptor of rat brain
T2 sequence (P15823 whole entry): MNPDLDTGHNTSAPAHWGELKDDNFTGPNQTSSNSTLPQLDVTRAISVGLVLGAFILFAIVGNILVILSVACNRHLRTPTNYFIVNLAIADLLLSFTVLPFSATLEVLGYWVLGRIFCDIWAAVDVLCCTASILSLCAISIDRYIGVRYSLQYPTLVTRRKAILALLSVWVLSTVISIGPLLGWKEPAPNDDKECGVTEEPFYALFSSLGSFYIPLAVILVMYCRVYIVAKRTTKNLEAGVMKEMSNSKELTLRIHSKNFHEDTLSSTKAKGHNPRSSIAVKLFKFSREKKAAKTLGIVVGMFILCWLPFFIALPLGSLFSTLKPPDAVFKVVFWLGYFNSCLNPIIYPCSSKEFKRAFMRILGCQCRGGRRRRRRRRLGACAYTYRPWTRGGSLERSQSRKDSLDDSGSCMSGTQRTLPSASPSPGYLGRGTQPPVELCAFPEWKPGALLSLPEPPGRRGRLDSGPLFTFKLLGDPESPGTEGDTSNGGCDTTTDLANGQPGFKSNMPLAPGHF
T2 sequence (P23944 whole entry): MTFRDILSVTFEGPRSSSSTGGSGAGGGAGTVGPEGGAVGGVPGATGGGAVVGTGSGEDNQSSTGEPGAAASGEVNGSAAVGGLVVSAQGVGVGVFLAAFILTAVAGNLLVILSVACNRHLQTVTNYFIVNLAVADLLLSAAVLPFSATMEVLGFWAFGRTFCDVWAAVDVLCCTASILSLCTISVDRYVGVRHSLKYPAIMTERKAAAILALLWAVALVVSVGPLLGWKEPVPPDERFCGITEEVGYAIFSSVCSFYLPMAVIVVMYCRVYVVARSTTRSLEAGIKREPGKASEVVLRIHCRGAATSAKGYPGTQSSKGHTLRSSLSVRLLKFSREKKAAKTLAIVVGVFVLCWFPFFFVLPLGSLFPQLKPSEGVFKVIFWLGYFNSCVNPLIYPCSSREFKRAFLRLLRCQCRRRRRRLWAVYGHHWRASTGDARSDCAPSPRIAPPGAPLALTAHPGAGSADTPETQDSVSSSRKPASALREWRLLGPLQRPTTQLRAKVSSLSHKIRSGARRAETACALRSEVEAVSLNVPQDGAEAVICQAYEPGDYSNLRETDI
T2 sequence (P43140 whole entry): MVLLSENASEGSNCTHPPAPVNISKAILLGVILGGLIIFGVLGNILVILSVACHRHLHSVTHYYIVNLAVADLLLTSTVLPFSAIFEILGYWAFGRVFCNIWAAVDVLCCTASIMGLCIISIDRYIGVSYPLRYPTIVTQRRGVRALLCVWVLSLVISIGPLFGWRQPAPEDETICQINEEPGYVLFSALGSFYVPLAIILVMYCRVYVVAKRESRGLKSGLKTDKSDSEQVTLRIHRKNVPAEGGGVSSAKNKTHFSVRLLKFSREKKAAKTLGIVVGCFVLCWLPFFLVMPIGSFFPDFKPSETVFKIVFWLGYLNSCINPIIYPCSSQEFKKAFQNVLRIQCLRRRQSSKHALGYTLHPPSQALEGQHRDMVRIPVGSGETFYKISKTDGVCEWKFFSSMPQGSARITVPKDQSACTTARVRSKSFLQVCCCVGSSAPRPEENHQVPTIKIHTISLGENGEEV

[3] = target: T1, Adrenergic receptor alpha-1 (Rattus norvegicus); experiment: Compound was evaluated for alpha adrenoceptor agonistic activity towards Alpha-1 adrenergic receptor of isolated rabbit aortic strips (exp 2); format: functional
[4] = target: Adrenergic receptor alpha-1 (Homo sapiens) (UniProt P35348+P25100+P35368); experiment: Compound was evaluated for alpha adrenoceptor agonistic activity towards Alpha-1 adrenergic receptor of isolated rat vas deferens; format: functional, tissue-based; conditions: Oryctolagus cuniculus
[5] = target: Beta-1 adrenergic receptor (Cavia porcellus) (UniProt B0FL73); experiment: Compound was evaluated for beta adrenoceptor agonistic activity towards Beta-1 adrenergic receptor of isolated guinea pig atria (exp 1); format: functional
Chain of Beta-1 adrenergic receptor (Cavia porcellus) (B0FL73 1-467): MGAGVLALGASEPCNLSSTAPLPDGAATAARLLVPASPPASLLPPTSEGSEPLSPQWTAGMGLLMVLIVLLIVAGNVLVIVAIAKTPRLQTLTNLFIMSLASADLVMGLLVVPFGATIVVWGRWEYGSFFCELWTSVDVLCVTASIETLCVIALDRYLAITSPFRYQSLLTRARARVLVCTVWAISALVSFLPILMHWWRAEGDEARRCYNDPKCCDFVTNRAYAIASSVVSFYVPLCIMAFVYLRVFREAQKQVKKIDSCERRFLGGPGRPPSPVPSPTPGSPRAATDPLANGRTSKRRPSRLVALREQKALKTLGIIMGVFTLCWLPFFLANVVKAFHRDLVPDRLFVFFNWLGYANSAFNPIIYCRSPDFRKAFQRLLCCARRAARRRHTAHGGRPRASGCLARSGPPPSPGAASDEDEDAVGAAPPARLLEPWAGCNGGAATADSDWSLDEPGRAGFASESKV

[6] = target: Beta-2 adrenergic receptor (Cavia porcellus) (UniProt Q8K4Z4); experiment: Compound was evaluated for beta adrenoceptor agonistic activity towards beta 2 receptor of isolated guinea pig tracheal strip (exp 1 2); format: functional
Chain of Beta-2 adrenergic receptor (Cavia porcellus) (Q8K4Z4 whole entry, looked up): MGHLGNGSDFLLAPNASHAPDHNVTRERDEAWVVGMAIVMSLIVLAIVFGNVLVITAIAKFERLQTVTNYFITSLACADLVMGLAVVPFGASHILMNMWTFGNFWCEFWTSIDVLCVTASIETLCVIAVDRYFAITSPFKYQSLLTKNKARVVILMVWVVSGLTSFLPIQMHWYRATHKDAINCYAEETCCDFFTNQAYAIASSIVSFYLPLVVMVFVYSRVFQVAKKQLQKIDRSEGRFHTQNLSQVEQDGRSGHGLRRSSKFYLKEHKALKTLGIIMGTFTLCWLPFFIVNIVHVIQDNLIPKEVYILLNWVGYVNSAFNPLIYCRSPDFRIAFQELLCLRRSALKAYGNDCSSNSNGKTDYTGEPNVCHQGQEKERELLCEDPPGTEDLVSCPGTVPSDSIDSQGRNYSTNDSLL

[7] = target: Beta-2 adrenergic receptor (Bos taurus, UniProt Q28044); experiment: Compound was evaluated for beta adrenergic binding affinity towards beta-2 receptor of bovine lung
Chain of Beta-2 adrenergic receptor (Q28044 whole entry): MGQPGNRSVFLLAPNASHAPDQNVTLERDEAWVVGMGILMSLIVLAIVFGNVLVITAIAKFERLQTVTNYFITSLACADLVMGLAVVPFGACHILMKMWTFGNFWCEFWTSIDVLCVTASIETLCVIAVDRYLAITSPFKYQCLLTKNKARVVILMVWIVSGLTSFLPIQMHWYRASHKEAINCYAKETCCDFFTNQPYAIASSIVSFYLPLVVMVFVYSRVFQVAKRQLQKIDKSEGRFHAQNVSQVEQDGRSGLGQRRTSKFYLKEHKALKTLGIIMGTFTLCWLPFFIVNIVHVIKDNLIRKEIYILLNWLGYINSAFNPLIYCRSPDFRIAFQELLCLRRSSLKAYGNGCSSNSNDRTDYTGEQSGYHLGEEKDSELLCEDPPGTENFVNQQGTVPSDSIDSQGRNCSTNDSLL

[8] = target: Beta-1 adrenergic receptor (Cavia porcellus) (UniProt B0FL73); experiment: Compound was evaluated for beta adrenoceptor agonistic activity towards Beta-1 adrenergic receptor of isolated guinea pig atria (exp 2); format: functional
[9] = target: Beta-1 adrenergic receptor (Cavia porcellus) (UniProt B0FL73); experiment: Compound was evaluated for beta adrenoceptor agonistic activity towards beta 1 receptor of isolated guinea pig atria (exp 1); format: functional
[10] = target: Beta-2 adrenergic receptor (Cavia porcellus) (UniProt Q8K4Z4); experiment: Compound was evaluated for beta adrenoceptor agonistic activity towards Beta-2 adrenergic receptor of isolated guinea pig tracheal strip (exp 1 2); format: functional
[11] = target: T3, Adrenergic receptor alpha-2 (Rattus norvegicus, UniProt P22086+P19328+P22909); experiment: Compound was evaluated for alpha adrenergic binding affinity towards Alpha-2 adrenergic receptor of rat brain
T3 sequence (P22086 whole entry): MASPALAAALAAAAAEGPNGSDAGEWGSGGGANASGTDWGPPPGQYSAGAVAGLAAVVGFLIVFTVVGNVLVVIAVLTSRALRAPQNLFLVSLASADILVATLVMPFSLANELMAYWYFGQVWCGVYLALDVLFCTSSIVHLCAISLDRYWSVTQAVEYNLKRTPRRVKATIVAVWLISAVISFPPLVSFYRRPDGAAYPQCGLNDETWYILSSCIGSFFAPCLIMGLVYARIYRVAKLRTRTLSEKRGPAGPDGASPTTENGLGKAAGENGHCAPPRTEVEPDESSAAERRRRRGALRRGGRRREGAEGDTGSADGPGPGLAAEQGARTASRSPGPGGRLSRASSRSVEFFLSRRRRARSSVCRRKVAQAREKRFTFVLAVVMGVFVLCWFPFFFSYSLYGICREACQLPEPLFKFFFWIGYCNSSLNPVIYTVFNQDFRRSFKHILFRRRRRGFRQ
T3 sequence (P19328 whole entry): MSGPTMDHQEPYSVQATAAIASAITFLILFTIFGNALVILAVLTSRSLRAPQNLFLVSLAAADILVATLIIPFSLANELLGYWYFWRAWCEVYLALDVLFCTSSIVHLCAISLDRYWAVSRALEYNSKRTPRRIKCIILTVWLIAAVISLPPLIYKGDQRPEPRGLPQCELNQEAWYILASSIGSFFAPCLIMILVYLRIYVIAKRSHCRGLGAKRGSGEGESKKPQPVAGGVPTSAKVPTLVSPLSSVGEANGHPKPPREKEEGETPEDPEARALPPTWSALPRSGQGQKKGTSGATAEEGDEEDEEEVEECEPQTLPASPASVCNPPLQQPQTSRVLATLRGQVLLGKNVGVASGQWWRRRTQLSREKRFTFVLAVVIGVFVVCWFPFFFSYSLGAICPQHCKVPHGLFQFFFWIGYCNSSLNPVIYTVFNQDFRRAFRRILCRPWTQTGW
T3 sequence (P22909 whole entry): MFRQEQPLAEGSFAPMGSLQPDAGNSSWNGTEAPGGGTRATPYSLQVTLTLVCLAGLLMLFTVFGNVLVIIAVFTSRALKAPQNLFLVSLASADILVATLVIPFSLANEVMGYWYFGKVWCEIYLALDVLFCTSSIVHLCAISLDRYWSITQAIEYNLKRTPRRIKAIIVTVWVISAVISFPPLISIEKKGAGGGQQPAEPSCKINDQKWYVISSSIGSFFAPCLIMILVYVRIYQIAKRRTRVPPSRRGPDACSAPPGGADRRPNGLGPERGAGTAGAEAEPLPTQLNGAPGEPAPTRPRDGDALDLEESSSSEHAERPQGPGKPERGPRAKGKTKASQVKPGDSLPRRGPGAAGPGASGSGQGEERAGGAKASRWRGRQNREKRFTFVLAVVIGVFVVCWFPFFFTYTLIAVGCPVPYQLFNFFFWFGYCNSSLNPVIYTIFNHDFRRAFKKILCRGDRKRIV

[12] = target: T4, Beta-1 adrenergic receptor (Rattus norvegicus, UniProt P18090)
T4 sequence (P18090 whole entry): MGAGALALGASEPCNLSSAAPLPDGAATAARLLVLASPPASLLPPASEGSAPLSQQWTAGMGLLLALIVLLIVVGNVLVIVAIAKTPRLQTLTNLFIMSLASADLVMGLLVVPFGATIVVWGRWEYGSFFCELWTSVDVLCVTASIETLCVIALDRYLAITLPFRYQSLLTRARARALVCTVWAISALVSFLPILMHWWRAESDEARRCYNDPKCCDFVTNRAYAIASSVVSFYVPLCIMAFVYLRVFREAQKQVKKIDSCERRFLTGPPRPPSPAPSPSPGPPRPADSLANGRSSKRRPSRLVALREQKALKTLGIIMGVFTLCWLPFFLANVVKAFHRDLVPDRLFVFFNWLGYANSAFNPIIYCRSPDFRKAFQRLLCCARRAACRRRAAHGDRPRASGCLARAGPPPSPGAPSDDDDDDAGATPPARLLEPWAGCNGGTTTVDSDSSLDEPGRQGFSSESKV
Description: Compound was evaluated for beta adrenergic binding affinity towards Beta-1 adrenergic receptor of rat brain

[13] = target: Adrenergic receptor alpha-2 (Homo sapiens) (UniProt P08913+P18825+P18089); conditions: Cavia porcellus; Ileum
Description: Intrinsic activity was expressed as the ratio between maximal response elicited by compound and that elicited by full agonist NE towards Alpha-2 adrenergic receptor of isolated guinea pig ileum

[14] = target: T1, Adrenergic receptor alpha-1 (Rattus norvegicus); experiment: Compound was evaluated for alpha adrenoceptor agonistic activity towards alpha 1 receptor of isolated rat vas deferens (exp 1); format: functional, tissue-based
[15] = target: T1, Adrenergic receptor alpha-1 (Rattus norvegicus); experiment: Compound was evaluated for alpha adrenoceptor agonistic activity towards Alpha-1 adrenergic receptor of isolated rat vas deferens (exp 2); format: functional, tissue-based
[16] = target: T4, Beta-1 adrenergic receptor; experiment: Compound was evaluated for beta adrenergic binding affinity towards beta-1 receptor of rat brain
[17] = target: Beta-1 adrenergic receptor (Cavia porcellus) (UniProt B0FL73); experiment: Compound was evaluated for beta adrenoceptor agonistic activity towards beta 1 receptor of isolated guinea pig atria; format: functional
[18] = target: Beta-1 adrenergic receptor (Cavia porcellus) (UniProt B0FL73); experiment: Intrinsic activity was expressed as the ratio between maximal response elicited by compound and that elicited by full agonist ISO towards beta 1 receptor of isolated guinea pig atria; format: functional
[19] = target: Beta-2 adrenergic receptor (Cavia porcellus) (UniProt Q8K4Z4)
[20] = target: Beta-1 adrenergic receptor (Cavia porcellus) (UniProt B0FL73)
Description: Intrinsic activity was expressed as the ratio between maximal response elicited by compound and that elicited by full agonist ISO towards Beta-1 adrenergic receptor of isolated guinea pig atria

[21] = target: T2, Adrenergic receptor alpha-1; experiment: Compound was evaluated for alpha adrenergic binding affinity towards alpha-1 receptor of rat brain

SMILES | Ki [2] | Ki [7] | Ki [11] | Ki [12] | pD2 [13] | pD2 [14] | Intrinsic activity [15] | pD2 [19] | other results
N[C@@H]1CCc2c(ccc(O)c2O)[C@H]1O | > 100 µM | 0.12 µM | 2.9 µM | 8 µM | 5.32 | – | – | – | pD2 [1]: 3.7; Intrinsic activity [3]: 0.87; pD2 [4]: < 3.5; pD2 [5]: 6.74; pD2 [6]: 7.49; Intrinsic activity [8]: 1; pD2 [9]: 4.96; pD2 [10]: 7.78
Oc1ccc(C2CNCCO2)cc1O (centres undefined) | 7.4 µM | 9.2 µM | 0.026 µM | – | 7.34 | 4.88 | 0.91 | 4.76 | Ki [16]: 15 µM; pD2 [17]: 5.31; Intrinsic activity [18]: 0.91
Oc1ccc(C2(O)CCCNC2)cc1O (centres undefined) | 15 µM | > 100 µM | 0.5 µM | > 100 µM | 5.56 | 4.76 | 0.95 | 4.44 | pD2 [20]: 3.81
CC(C)NCC(O)c1ccc(O)c(O)c1 (centres undefined) [ISOPROTERENOL] | – | – | 21 µM | – | – | – | – | – | Ki [21]: 35.5 µM
